Reference: PubChem BioAssay AID179 (DTP/NCI, 2004)
Active and inactive are the calls of the source.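 How the source made its calls: active means compounds giving half or more protection of infected cells from virus-caused growth loss, again on retest; inactive means the rest.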 Where a SMILES comes first, the peptide text is derived from it. [ ]: non-standard residue; d: D form. The star is where a group is joined. Ac5c = NC1(C(=O)O)CCCC1; Cbz = O=C(OCc1ccccc1)*; Boc = CC(C)(C)OC(=O)*; tBu = CC(C)(C)*

Test system: CEM cells HIV-1 protection, formazan growth assay
Assay: NCI AIDS Antiviral Assay
Settings: for IC50: measured here: growth of uninfected CEM cells
In short: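 Category rules: moderately active means at least 50% protection on retest, and confirmed active means 100% protection reproducibly. The underlying data came from a formazan growth assay in HIV-1-infected CEM cells.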

Q: `CCc1nc2cc(F)ccc2[nH]c1=O` was tested. Which EC50 did it give?
A: > 200 µM

Q: What about the IC50 of the same molecule?
A: 132 µM

Q: With `CCOC(=O)c1cc(-c2ccc(-c3cc(C(=O)OCC)c(C#N)c(N)c3C#N)cc2)c(C#N)c(N)c1C#N` as the molecule, how does the EC50 read?
A: > 26.9 µM

Q: What about the IC50 of the same molecule?
A: > 26.9 µM

Q: For `CSc1nc(C)c2c(n1)SCC2`, which EC50 is on record?
A: > 200 µM

Q: What about the IC50 of the same molecule?
A: > 200 µM

Q: With `O=C(O)C1c2ccccc2C(C(=O)O)c2ccccc21` (stereo not drawn) as the molecule, how does the outcome read?
A: inactive

Q: `c1ccc(-c2nnc(-c3nsc4ccccc34)o2)cc1` was tested. Which EC50 did it give?
A: > 18.6 µM

Q: What about the IC50 of the same molecule?
A: > 18.6 µM

Q: `Cc1cc(Cl)ccc1C(=O)c1ccc2ccccc2c1C(=O)O` was tested. Which EC50 did it give?
A: > 550 µM

Q: And the IC50?
A: 126 µM

Q: `Clc1ccccc1/C=C1\c2ccccc2-c2nc3ccccc3nc21` was tested. Which EC50 did it give?
A: > 200 µM

Q: And the IC50?
A: > 200 µM

Q: What does the source list for `O=c1[nH]c2ccccc2c(O)c1N=Nc1ccc(S(=O)(=O)O)cc1`?
A: EC50: > 200 µM; IC50: > 200 µM

Q: Which results are given for `S=c1[nH]nc(Cn2c3ccc(Br)cc3c3nc4ccccc4nc32)o1`?
A: EC50: > 200 µM; IC50: 49 µM

Q: With `O=c1c(=O)c2c3c(ccc12)OCO3` as the molecule, how does the outcome read?
A: inactive

Q: Which EC50 does the source give for `COC(=O)C(Cn1cnc2c(N)ncnc21)P(=O)(OC)OC` (stereo not drawn) here?
A: > 759 µM

Q: What about the IC50 of the same molecule?
A: 39.8 µM

Q: How did the EC50 turn out when `C/C(=N/OC(=O)N(C)C)c1cccc(Cl)c1` was run?
A: > 200 µM

Q: What about the IC50 of the same molecule?
A: 166 µM

Q: What does the source list for `COc1c(OCc2ccccc2)c(OCc2ccccc2)cc(COS(=O)(=O)O)c1-c1c(COS(=O)(=O)O)cc(OCc2ccccc2)c(OCc2ccccc2)c1OC`?
A: EC50: > 1.58 µM; IC50: > 1.58 µM

Q: With `COc1cc(Br)c2nsnc2c1` as the molecule, how does the EC50 read?
A: > 29.5 µM

Q: What about the IC50 of the same molecule?
A: > 29.5 µM

Q: What does the source list for `c1ccc(C2CN3CCSC3=N2)cc1` (stereo not drawn)?
A: EC50: > 200 µM; IC50: > 200 µM

Q: How did the outcome turn out when `CC(=O)[O-].CC(=O)[O-].[Mn+2].c1ccc(/C(=N\Nc2ccccn2)c2ccccn2)cc1` was run?
A: inactive

Q: With `O=c1[nH][nH]c(=O)c2c1nc(SCc1ccc(Br)cc1)n2Cc1ccccc1` as the molecule, how does the EC50 read?
A: > 214 µM

Q: What about the IC50 of the same molecule?
A: > 214 µM

Q: For `Cc1cc(NS(=O)(=O)c2ccc(NO)cc2)no1`, which EC50 is on record?
A: > 70.8 µM

Q: And the IC50?
A: 15.8 µM

Q: Which results are given for `Cn1c(N)c(/C=N/NC(=O)CC#N)c(=O)n(C)c1=O`?
A: EC50: > 200 µM; IC50: > 200 µM

Q: For `CCCc1cc(=O)oc2c3c(c4c(c12)OC(C)(C)C=C4)O[C@@H](C)[C@H](C)[C@H]3O`, which EC50 is on record?
A: > 51.3 µM

Q: What about the IC50 of the same molecule?
A: 17 µM

Q: For `CC(C)[Si](OC1=CCC[C@H]2NC(=O)[C@@H](Cc3ccccc3)[C@@]12C)(C(C)C)C(C)C`, which EC50 is on record?
A: > 200 µM

Q: What about the IC50 of the same molecule?
A: 12 µM

Q: Which results are given for `Cc1cn([C@@H]2C[C@](C)(CO)N(C)O2)c(=O)[nH]c1=O`?
A: EC50: > 200 µM; IC50: > 200 µM

Q: Which EC50 does the source give for `O=C(Cn1ccnc1[N+](=O)[O-])N(CCO)CCO` here?
A: > 977 µM

Q: What about the IC50 of the same molecule?
A: > 977 µM

Q: For `Nc1ccc(/C=C/c2ccc3ncccc3c2)cc1`, which EC50 is on record?
A: 0.0631 µM

Q: And the IC50?
A: > 200 µM

Q: `N#CCC[P+](c1ccccc1)(c1ccccc1)c1ccccc1` was tested. Which EC50 did it give?
A: > 200 µM

Q: What about the IC50 of the same molecule?
A: 55 µM

Q: With `COc1ccc2c(c1)[n+]([O-])c(/C(C)=N/NC(=O)c1ccccc1O)c(C)[n+]2[O-]` as the molecule, how does the EC50 read?
A: > 245 µM

Q: What about the IC50 of the same molecule?
A: > 245 µM

Q: For `O=C(NC(Nc1ccc(F)c(Cl)c1)(C(F)(F)F)C(F)(F)F)C(C(F)(F)F)C(F)(F)F`, which EC50 is on record?
A: > 200 µM

Q: Which EC50 does the source give for `COc1ccc(C(=O)C/C(=N/NC(N)=S)C(=O)Nc2ccccc2)cc1` here?
A: > 25.1 µM

Q: And the IC50?
A: > 25.1 µM

Q: Which EC50 does the source give for `COC(=O)C(=O)C(CC(=O)Nc1c(C)cccc1C)C(=O)OC` (stereo not drawn) here?
A: > 776 µM

Q: What about the IC50 of the same molecule?
A: > 776 µM

Q: Which results are given for `[Ni+2].c1nnc(N2CNCCNCN(c3nnc[n-]3)CNCCNC2)[n-]1`?
A: EC50: > 100 µM; IC50: 97.7 µM

Q: Which results are given for `CSCCCNC(=O)c1csc(-c2csc(C(CNC(=O)OC(C)(C)C)CNC(=O)OC(C)(C)C)n2)n1`?
A: EC50: > 200 µM; IC50: 22.4 µM

Q: For `O=c1cnc2c(ccc3ccccc32)[nH]1`, which EC50 is on record?
A: > 182 µM

Q: What about the IC50 of the same molecule?
A: > 182 µM

Q: Which outcome does the source give for `Cc1cc(C)nc(NS(=O)(=O)c2ccc(NC(=O)COC(=O)c3cccc4c(=O)c5ccccc5[nH]c34)cc2)n1` here?
A: inactive

Q: Which results are given for `Cc1ccc(-c2c(C#N)c(-c3ccccc3)c(C#N)c(=O)n2NS(=O)(=O)c2ccccc2)cc1`?
A: EC50: > 200 µM; IC50: 69.2 µM

Q: For `Cc1ccc(Oc2ccccc2N)cc1`, which outcome is on record?
A: inactive

Q: For `O=C1/C(=C/c2ccccc2)CCC/C1=C\c1ccc(O)c(CN2CCCCC2)c1`, which EC50 is on record?
A: > 200 µM

Q: What about the IC50 of the same molecule?
A: 1.17 µM

Q: What does the source list for `CC(=O)OCC1OC(n2c(-c3ccc(C)cc3)cc(-c3ccco3)c(C#N)c2=S)C(OC(C)=O)C(OC(C)=O)C1OC(C)=O` (stereo not drawn)?
A: EC50: > 200 µM; IC50: 155 µM

Q: With `COC(=O)C1(NC(=O)C(Cc2ccccc2)NC(=O)C(NC(=O)C(CCCCNC(=O)OC(C)(C)C)NC(=O)C(Cc2c[nH]c3ccccc23)NC(=O)C(Cc2ccccc2)NC(=O)OCc2ccccc2)C(C)OC(C)(C)C)CCCC1` (stereo not drawn) (Cbz-FWK(Boc)T(tBu)F[Ac5c]-OMe; configuration not given here) as the molecule, how does the EC50 read?
A: > 200 µM

Q: What about the IC50 of the same molecule?
A: 115 µM

Q: How did the EC50 turn out when `Cn1c2ccccc2c2ccc3c(c21)C(=O)c1ccc2c4ccccc4n(C)c2c1C3=O` was run?
A: > 200 µM

Q: And the IC50?
A: > 200 µM

Q: With `COC(=O)[C@@]12CC(C(C)C)[C@H]3CC(C(=O)C=C1OC)[C@H]32` (stereo partly drawn) as the molecule, how does the outcome read?
A: inactive
